Test results reported in patent US12281122B1, “PI3K inhibitors” (Cogent Biosciences, Inc., priority 2023, dated 2025).

Key:
[1] = system: T47D (PI3Kα-H1047R) cell line; test: HTRF phospho-AKT(S473) cell assay in T47D cells; type: cell-based, human; conditions: Homo sapiens; HTRF phospho-AKT(S473), T47D (PI3Kα-H1047R) cells, 2 hours compound incubation
Procedure, shortened: (§1)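 T47D (PI3Kα-H1047R; RPMI, 10% FBS, insulin) and SKBR3 (wild-type PI3Kα; McCoy's 5A, 10% FBS) cells treated 2 h at 37 °C with 12-point 1:3 dilutions, top 5 μM and 10 μM respectively, ≤0.5% DMSO. SKBR3 stimulated with 70 ng/ml PDGF-BB for the last 15 min; lysate pAKT(S473) by HTRF, IC50 from curves.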

[2] = system: SKBR3 (PI3Kα-Wild Type) cell line; test: HTRF phospho-AKT(S473) cell assay in SKBR3 cells; type: cell-based, human; conditions: Homo sapiens, SK-BR-3; HTRF phospho-AKT(S473), SKBR3 (PI3Kα-Wild Type) cells, 2 hours compound incubation, PDGF-BB stimulated
Procedure, shortened: as §1

IC50 [1]	IC50 [2]	SMILES
< 0.25 µM	1 to 5 µM	Cc1cc([C@@H](C)Nc2ccc(Cl)nc2C(=O)NS(C)(=O)=O)c2nc(N3C[C@@H]4[C@H](C3)[C@H]4c3cc4n(n3)CCC4)n(C)c(=O)c2c1 [Compound 477, 6-chloro-3-(((R)-1-(2-((1R,5S,6R)-6-(5,6-dihydro-4H-pyrrolo[1,2-b]pyrazol-2-yl)-3-azabicyclo[3.1.0]hexan-3-yl)-3,6-dimethyl-4-oxo-3,4-dihydroquinazolin-8-yl)ethyl)amino)-N-(methylsulfonyl) picolinamide]
< 0.25 µM	1 to 5 µM	Cc1cc([C@@H](C)Nc2ccc(Cl)nc2C(=O)NS(C)(=O)=O)c2nc(N3C[C@@H]4[C@H](C3)[C@H]4c3cn(CC(F)(F)F)nn3)n(C)c(=O)c2c1 [Compound 478, 6-chloro-3-(((R)-1-(3,6-dimethyl-4-oxo-2-((1R,5S,6R)-6-(1-(2,2,2-trifluoroethyl)-1H-1,2,3-triazol-4-yl)-3-azabicyclo[3.1.0]hexan-3-yl)-3,4-dihydroquinazolin-8-yl)ethyl)amino)-N-(methylsulfonyl) picolinamide]
0.25 to 0.5 µM	≥ 5 µM	COc1cc([C@H]2[C@@H]3CN(c4nc5c([C@@H](C)Nc6ccc(Cl)nc6C(=O)NS(C)(=O)=O)cc(C)cc5c(=O)n4C)C[C@@H]32)c(F)cn1 [Compound 479, 6-chloro-3-(((R)-1-(2-((1R,5S,6S)-6-(5-fluoro-2-methoxypyridin-4-yl)-3-azabicyclo[3.1.0]hexan-3-yl)-3,6-dimethyl-4-oxo-3,4-dihydroquinazolin-8-yl)ethyl)amino)-N-(methylsulfonyl) picolinamide]
< 0.25 µM	1 to 5 µM	Cc1cc([C@@H](C)Nc2ccc(Cl)nc2C(=O)NS(C)(=O)=O)c2nc(N3CCC(c4cn(C)nn4)CC3)n(C)c(=O)c2c1 [Compound 480, (R)-6-chloro-3-((1-(3,6-dimethyl-2-(4-(1-methyl-1H-1,2,3-triazol-4-yl)piperidin-1-yl)-4-oxo-3,4-dihydroquinazolin-8-yl)ethyl)amino)-N-(methylsulfonyl) picolinamide]
< 0.25 µM	1 to 5 µM	COc1ncc([C@H]2[C@@H]3CN(c4nc5c([C@@H](C)Nc6ccc(Cl)nc6C(=O)NS(C)(=O)=O)cc(C)cc5c(=O)n4C)C[C@@H]32)cn1 [Compound 483, 6-chloro-3-(((R)-1-(2-((1R,5S,6S)-6-(2-methoxypyrimidin-5-yl)-3-azabicyclo[3.1.0]hexan-3-yl)-3,6-dimethyl-4-oxo-3,4-dihydroquinazolin-8-yl)ethyl)amino)-N-(methylsulfonyl) picolinamide]
0.25 to 0.5 µM	1 to 5 µM	Cc1cc([C@@H](C)Nc2ccc(Cl)nc2C(=O)NS(C)(=O)=O)c2nc(N3C[C@@H]4[C@H](C3)[C@H]4c3cnc(C(F)(F)F)nc3)n(C)c(=O)c2c1 [Compound 484, 6-chloro-3-(((R)-1-(3,6-dimethyl-4-oxo-2-((1R,5S,6S)-6-(2-(trifluoromethyl)pyrimidin-5-yl)-3-azabicyclo[3.1.0]hexan-3-yl)-3,4-dihydroquinazolin-8-yl)ethyl)amino)-N-(methylsulfonyl) picolinamide]
0.25 to 0.5 µM	1 to 5 µM	Cc1cc([C@@H](C)Nc2ccc(Cl)nc2C(=O)NS(C)(=O)=O)c2nc(N3C[C@@H]4[C@H](C3)[C@H]4c3cnc(C4CC4)nc3)n(C)c(=O)c2c1 [Compound 485, 6-chloro-3-(((R)-1-(2-((1R,5S,6S)-6-(2-cyclopropylpyrimidin-5-yl)-3-azabicyclo[3.1.0]hexan-3-yl)-3,6-dimethyl-4-oxo-3,4-dihydroquinazolin-8-yl)ethyl)amino)-N-(methylsulfonyl) picolinamide]
< 0.25 µM	1 to 5 µM	Cc1cc([C@@H](C)Nc2ccc(Cl)nc2C(=O)NS(C)(=O)=O)c2nc(N3CCC(c4ncc(F)cn4)CC3)n(C)c(=O)c2c1 [Compound 486, (R)-6-chloro-3-((1-(2-(4-(5-fluoropyrimidin-2-yl)piperidin-1-yl)-3,6-dimethyl-4-oxo-3,4-dihydroquinazolin-8-yl)ethyl)amino)-N-(methylsulfonyl) picolinamide]
0.25 to 0.5 µM	1 to 5 µM	COc1cnc(C2CCN(c3nc4c([C@@H](C)Nc5ccc(Cl)nc5C(=O)NS(C)(=O)=O)cc(C)cc4c(=O)n3C)CC2)nc1 [Compound 487, (R)-6-chloro-3-((1-(2-(4-(5-methoxypyrimidin-2-yl)piperidin-1-yl)-3,6-dimethyl-4-oxo-3,4-dihydroquinazolin-8-yl)ethyl)amino)-N-(methylsulfonyl) picolinamide]
< 0.25 µM	1 to 5 µM	Cc1cc([C@@H](C)Nc2ccc(Cl)nc2C(=O)NS(C)(=O)=O)c2nc(N3CCC(c4ccnn4CC(F)(F)F)CC3)n(C)c(=O)c2c1 [Compound 488, (R)-6-chloro-3-((1-(3,6-dimethyl-4-oxo-2-(4-(1-(2,2,2-trifloroethyl)-1H-pyrazol-5-yl)piperidin-1-yl)-3,4-dihydroquinazolin-8-yl)ethyl)amino)-N-(methylsulfonyl) picolinamide]
< 0.25 µM	1 to 5 µM	Cc1cc([C@@H](C)Nc2ccc(Cl)nc2C(=O)NS(C)(=O)=O)c2nc(N3CCC(c4cnn(C)n4)CC3)n(C)c(=O)c2c1 [Compound 489, (R)-6-chloro-3-((1-(3,6-dimethyl-2-(4-(2-methyl-2H-1,2,3-triazol-4-yl)piperidin-1-yl)-4-oxo-3,4-dihydroquinazolin-8-yl)ethyl)amino)-N-(methylsulfonyl) picolinamide]
0.25 to 0.5 µM	≥ 5 µM	Cc1cc([C@@H](C)Nc2ccc(Cl)nc2C(=O)NS(C)(=O)=O)c2nc(N3CCC(n4nc(C)cc4F)CC3)n(C)c(=O)c2c1 [Compound 490, (R)-6-chloro-3-((1-(2-(4-(5-fluoro-3-methyl-1H-pyrazol-1-yl)piperidin-1-yl)-3,6-dimethyl-4-oxo-3,4-dihydroquinazolin-8-yl)ethyl)amino)-N-(methylsulfonyl) picolinamide]
0.25 to 0.5 µM	1 to 5 µM	Cc1cc([C@@H](C)Nc2ccc(Cl)nc2C(=O)NS(C)(=O)=O)c2nc(N3C[C@@H]4[C@H](C3)[C@H]4n3cc(C)cn3)n(C)c(=O)c2c1 [Compound 491, 6-chloro-3-(((R)-1-(3,6-dimethyl-2-((1R,5S,6S)-6-(4-methyl-1H-pyrazol-1-yl)-3-azabicyclo[3.1.0]hexan-3-yl)-4-oxo-3,4-dihydroquinazolin-8-yl)ethyl)amino)-N-(methylsulfonyl) picolinamide]
0.25 to 0.5 µM	1 to 5 µM	Cc1cc([C@@H](C)Nc2ccc(Cl)nc2C(=O)NS(C)(=O)=O)c2nc(N3CCC(n4cc(F)c(C)n4)CC3)n(C)c(=O)c2c1 [Compound 492, (R)-6-chloro-3-((1-(2-(4-(4-fluoro-3-methyl-1H-pyrazol-1-yl)piperidin-1-yl)-3,6-dimethyl-4-oxo-3,4-dihydroquinazolin-8-yl)ethyl)amino)-N-(methylsulfonyl) picolinamide]
< 0.25 µM	1 to 5 µM	[2H]C([2H])([2H])n1ccc([C@H]2[C@@H]3CN(c4nc5c([C@@H](C)Nc6ccc(Cl)nc6C(=O)NS(C)(=O)=O)cc(C)cc5c(=O)n4C)C[C@@H]32)n1 [Compound 493, 6-chloro-3-(((R)-1-(3,6-dimethyl-2-((1R,5S,6R)-6-(1-(methyl-d3)-1H-pyrazol-3-yl)-3-azabicyclo[3.1.0]hexan-3-yl)-4-oxo-3,4-dihydroquinazolin-8-yl)ethyl)amino)-N-(methylsulfonyl) picolinamide]
< 0.25 µM	1 to 5 µM	[2H]C([2H])([2H])n1nccc1[C@H]1[C@@H]2CN(c3nc4c([C@@H](C)Nc5ccc(Cl)nc5C(=O)NS(C)(=O)=O)cc(C)cc4c(=O)n3C)C[C@@H]21 [Compound 494, 6-chloro-3-(((R)-1-(3,6-dimethyl-2-((1R,5S,6R)-6-(1-(methyl-d3)-1H-pyrazol-5-yl)-3-azabicyclo[3.1.0]hexan-3-yl)-4-oxo-3,4-dihydroquinazolin-8-yl)ethyl)amino)-N-(methylsulfonyl) picolinamide]
0.25 to 0.5 µM	1 to 5 µM	Cc1cc([C@@H](C)Nc2ccc(Cl)nc2C(=O)NS(C)(=O)=O)c2nc(N3C[C@@H]4[C@H](C3)[C@H]4c3cc(C)ncc3F)n(C)c(=O)c2c1 [Compound 495, 6-chloro-3-(((R)-1-(2-((1R,5S,6S)-6-(5-fluoro-2-methylpyridin-4-yl)-3-azabicyclo[3.1.0]hexan-3-yl)-3,6-dimethyl-4-oxo-3,4-dihydroquinazolin-8-yl)ethyl)amino)-N-(methylsulfonyl) picolinamide]

SMILES	IC50 [1]	IC50 [2]
Cc1cc([C@@H](C)Nc2ccc(Cl)nc2C(=O)NS(C)(=O)=O)c2nc(N3[C@@H]4CC[C@H]3C[C@H](n3cc(C)cn3)C4)n(C)c(=O)c2c1 [Compound 481, 6-chloro-3-(((R)-1-(3,6-dimethyl-2-((1R,3S,5S)-3-(4-methyl-1H-pyrazol-1-yl)-8-azabicyclo[3.2.1]octan-8-yl)-4-oxo-3,4-dihydroquinazolin-8-yl)ethyl)amino)-N-(methylsulfonyl) picolinamide]	0.25 to 0.5 µM	1 to 5 µM
Cc1cc([C@@H](C)Nc2ccc(Cl)nc2C(=O)NS(C)(=O)=O)c2nc(N3[C@@H]4CC[C@H]3C[C@@H](n3cc(C)cn3)C4)n(C)c(=O)c2c1 [Compound 482, 6-chloro-3-(((R)-1-(3,6-dimethyl-2-((1R,3R,5S)-3-(4-methyl-1H-pyrazol-1-yl)-8-azabicyclo[3.2.1]octan-8-yl)-4-oxo-3,4-dihydroquinazolin-8-yl)ethyl)amino)-N-(methylsulfonyl) picolinamide]	< 0.25 µM	1 to 5 µM
